Laboratory results as given in patent US20040121307A1, “Early detection of cellular differentiation using optophoresis” (Genoptix, Inc, priority 2002, published 2004).
≈ marks a conversion by molar mass, not a printed value.

Experiments:
U937 cells = assay: Experiment 13: quantitative determination of PKC activation, escape velocity dose response; type: cell-based; conditions: for escape velocity, Average: five hours
Experimental: Optophoretic analysis was used to develop a full dose response curve for U937 cells treated with PMA. U937 cells were incubated with varying amounts of PMA dissolved in DMSO. The following concentrations of PMA were tested: 0.156 ng/ml, 0.312 ng/ml, 0.625 ng/ml, 1.25 ng/ml, 2.5 ng/ml, 5 ng/ml, and no PMA (control). The cells were incubated with the PMA solutions (or simply DMSO in the case of the control) for five hours. At the end of the incubation period, the cells were centrifuged down for five minutes at 5000 rpm. The supernatent was then removed and the pellet resuspended in 1 ml PBS/1% BSA buffer plus 1:10 trypan blue. The cells were then loaded onto a cover slip containing agarose that was spin-coated onto the surface thereof. Escape velocity measurements were then taken using a 100 mW laser having a beam diameter of 28 pixels. Table 9 reproduced below sets forth the measured escape velocities (μm/sec) for each of the various PMA concentrations.
The method described above may be used to quantitatively determine the level of PKC activation in cells in response to exposure to PKC activating compound using a moving optical gradient. The method includes the steps of first providing a series of cell samples and exposing the series of cell samples to different concentrations of the PKC activating compound. After a period of incubation from about one to several hours, the cells and the optical gradient are moved relative to each other so as to cause displacement of at least some of the cells. Next, the displacement of at least a portion of the displaced cells is measured for each of the different concentrations. […] From the dose response curve, one is able to calculate one or more numerical values that correlate to PKC potency and/or efficacy. For example, the dose response curve can be used to calculate the EC50, Hill slope, or plateau value relative to a standard compound.

[1] = tested on: CD11b expression in HL-60 cells; assay: FACS CD11b expression profile; type: cell-based; conditions: 400 ng/ml PMA
Experimental: Fast scan analysis was also performed on HL-60 cells that were treated with PMA and DMSO. A time course evaluation of PMA treated HL-60 cells was performed with fast scan data taken at 16 hours, 24 hours, 40 hours, and 72 hours post-treatment with 400 ng/ml PMA. A control sample of HL-60 cells was also tested using EtOH as the vehicle for purposes of comparing the differentiated cells with the undifferentiated HL-60 cells. The PMA-treated and control cells were harvested and trypsinized. The samples were then resuspended in PBS/1% BSA. A set of samples was also obtained and left as pellets at 4° C. for subsequent FACS analysis.
FIG. 145 illustrates a histogram of the travel distance of the control cells as well as the PMA-treated cells at 16 hours, 24 hours, 40 hours, and 72 hours post-treatment. FIG. 146 illustrates the mean travel distances of the control cells as well as the PMA-treated cells at 16 hours, 24 hours, 40 hours, and 72 hours post-treatment. FIG. 147 illustrates the FACS CD11b expression profile in PMA-treated HL-60 cells as well as the control. CD11b is a known marker of cellular differentiation and is expressed on the surface of differentiating cells. […] The data illustrate that Optophoretic analysis can be used as an assay for the detection and quantification of cellular differentiation. […]

SMILES: CCCCCCCCCCCCCC(=O)O[C@@H]1[C@@H](C)[C@@]2(O)[C@@H](C=C(CO)C[C@]3(O)C(=O)C(C)=C[C@@H]23)[C@@H]2C(C)(C)[C@]12OC(C)=O [PMA, phorbol 12 myristate 13-acetate]
- escape velocity, Average (U937 cells; 1.25 ng/ml PMA): 17.0 μm/sec
- escape velocity, Average (U937 cells; 2.5 ng/ml PMA): 17.0 μm/sec
- escape velocity, Average (U937 cells; 5 ng/ml PMA): 17.3 μm/sec
- escape velocity, Average (U937 cells; .156 ng/ml PMA): 15.8 μm/sec
- escape velocity, Average (U937 cells; .312 ng/ml PMA): 16.0 μm/sec
- escape velocity, Average (U937 cells; .625 ng/ml PMA): 16.6 μm/sec
- EC50 (U937 cells; Homo sapiens, U-937, 5 h, U937 cells, five hours (FIG. 53), read-out: EC50 value of the PMA dose response curve (escape velocity)): ~0.625 ng/mL (≈ 1.01 nM)
- time after treatment at which a noticeable change in CD11b expression levels was observed [1]: about 40 hours
